These results are taken from PubChem BioAssay AID1351 (Sanford-Burnham Center for Chemical Genomics, 2008).

For this assay, the system named is PPC-1 thapsigargin-induced death, ATPlite luminescence, 24 h. Briefly: ER stress death rescue in PPC-1 prostate cells – cell-based, human prostate cancer PPC-1, ATP luminescence, SAR follow-up (AID 1351). The following applies: at 25 µM, stronger effect = higher value.
The mark [1] stands for this setting: measured here: survival at thapsigargin 15 uM.
The mark [2] stands for this setting: measured here: survival at thapsigargin 20 uM.
The mark [3] stands for this setting: survival at lower thapsigargin concentration.

Structures are written as SMILES. Where “and” joins values, the source holds several entries; their conditions need not be identical. Equal entries are not always repeated.

For the compound `CSc1ccc(C2Nc3ccccc3NC3=C2C(=O)CC(c2ccccc2)C3)cc1` (centres undefined), the survival was 89%. For the same compound, the survival under setting [1] was determined as 52%. In addition, the survival under setting [2] worked out at 26%. Further, under setting [3], the survival was 95% and 105%.
Take `CCOc1cccc(C2Nc3ccccc3NC3=C2C(=O)CC(c2ccc(OC)cc2)C3)c1` (centres undefined): the survival was 39%. Under setting [1], this compound yielded a survival of 14%. Moreover, under setting [2], the survival worked out at 15%. In addition, under setting [3], the survival was 81% and 87%.
As for `COc1ccc(C2CC(=O)C3=C(C2)Nc2ccccc2NC3c2cccc(C(F)(F)F)c2)cc1OC` (centres undefined), the survival was 94%. Further, under setting [1], the survival was determined as 99%. Also, the survival under setting [2] is 69%. For the same compound, the survival under setting [3] is 93% and 94%.
As to `CC1(C)CC(=O)C2=C(C1)Nc1ccccc1NC2c1ccc(-c2ccccc2)cc1` (centres undefined), the survival was 90%. In addition, the survival under setting [1] came to 86%. The same compound yielded a survival under setting [2] of 87%. Further, the survival under setting [3] is 81% and 101%.
On to `O=C1CC(c2ccccc2)CC2=C1C(c1c(F)cccc1Cl)Nc1ccccc1N2` (centres undefined), for which the survival is 90%. For the same compound, the survival under setting [1] was 35%. The survival under setting [2] stood at 18%. Further, under setting [3], the survival was 86% and 92%.
Consider `COc1ccc(C2CC(=O)C3=C(C2)Nc2ccccc2NC3c2cc(C)ccc2C)cc1` (centres undefined), for which the survival is 88%. This compound returned a survival under setting [1] of 83%. Moreover, under setting [2], the survival is 32%. For the same compound, the survival under setting [3] was 85% and 91%.
For the compound `CCOc1cc(C2Nc3ccccc3NC3=C2C(=O)CC(c2ccc(OC)cc2)C3)cc(Cl)c1O` (centres undefined), the survival was 62%. The compound further yielded a survival under setting [1] of 11%. The survival under setting [2] amounted to 8.5%. The survival under setting [3] was 82% and 90%.
As for `CCCOc1ccc(C2Nc3ccccc3NC3=C2C(=O)CC(c2ccc(OC)c(OC)c2)C3)cc1` (centres undefined), the survival was 90%. Under setting [1], this compound had a survival of 75%. Moreover, under setting [2], the survival was found to be 37%. Also, the survival under setting [3] is 82% and 81%.
Take `COc1ccc(C2CC(=O)C3=C(C2)Nc2ccccc2NC3c2cccc(Br)c2)cc1OC` (centres undefined): the survival was 85%. This compound also registered a survival under setting [1] of 102%. This compound also had a survival under setting [2] of 59%. Further, under setting [3], the survival is 94% and 100%.
Consider `COc1ccc(C2CC(=O)C3=C(C2)Nc2ccccc2NC3c2ccccc2C(F)(F)F)cc1OC` (centres undefined), for which the survival was 105%. Moreover, under setting [1], the survival was 108%. This compound displayed a survival under setting [2] of 56%. Moreover, the survival under setting [3] is 97% and 102%.
Turning to `COc1ccc(C2CC(=O)C3=C(C2)Nc2ccccc2NC3c2cccc(Oc3ccccc3)c2)cc1OC` (centres undefined), the survival is 89%. Under setting [1], the survival worked out at 95%. For the same compound, under setting [2], the survival stood at 69%. Under setting [3], the survival is 91% and 92%.
